The text below walks through data of patent publication US20110275707A1, “SUBSTITUTED AFPO (6-ARYL-4H-FURO[3,2-C]PYRAN-4-ONE) DERIVATIVES AS ANTI-CANCER AGENTS” (priority 2008, published 2011).

The term melting point denotes the temperature of the solid-liquid transition.

For data set [1], the system named is SK-BR-3 (HER2+) human tumor cell line. In words: Cell growth inhibition assay (SRB), SK-BR-3. It is filed as cell-based. The note with it: SK-BR-3, compared with 1. As for the experimental part: Cell Growth Inhibition Assay. All stock cultures are grown in T-25 flasks. Freshly trypsinized cell suspensions were seeded in 96-well microliter plates with compounds added from DMSO-diluted stock. The plates were incubated for an additional 72 h after attachment and drug addition, and the assay was terminated by 10% TCA. Then, 0.4% SRB dye in 1% HOAc was added to stain the cells for 10 minutes. Unbound dye was removed by repeated washing with 1% HOAc and the plates were air dried. Bound stain was subsequently solved with 10 mM trizma base, and the absorbance read at 515 nm. Growth inhibition of 50% (GI50) is calculated as the drug concentration, which caused a 50% reduction in the net protein increase in control cells during the drug incubation. The mean ED50 is the concentration of agent that reduces cell growth by 50% under the experimental conditions and is the average from at least two independent determinations. Variation between replicates was no more than 5% of the mean. The following human tumor cell lines were used in the assay: A549 (non small cell lung cancer), ZR-75-1 (estrogen receptor positive breast cancer), MDA MB-231 (estrogen receptor negative breast cancer), SKBR-3 (estrogen receptor negative, HER-2 over-expressing breast cancer), KB (nasopharyngeal carcinoma), KB-VIN (vincristine-resistant KB subline). […]

Bounds are passed on as bounds.

With `Cc1coc2cc(-c3ccc(O)cc3)oc(=O)c12` [Compound 18, 6-(4-Hydroxyphenyl)-3-methyl-4H-furo[3,2-c]pyran-4-one], the melting point was 258 to 260 °C. Take `Cc1ccc(-c2cc3occ(C)c3c(=O)o2)cc1C` [Compound 21, 6-(3,4-Dimethylphenyl)-3-methyl-4H-furo[3,2-c]pyran-4-one]: the melting point lay in the range of 182 to 184 °C. On to `Cc1ccc(-c2cc3occ(C)c3c(=O)o2)cc1` [Compound 16, 3-Methyl-6-p-tolyl-4H-furo[3,2-c]pyran-4-one], for which the melting point was 153 to 155 °C.

On to `COc1cccc(-c2cc3occ(C)c3c(=O)o2)c1OC` [Compound 19, 6-(2,3-Dimethoxyphenyl)-3-methyl-4H-furo[3,2-c]pyran-4-one], for which the melting point fell in the range of 111 to 113 °C.

For the compound `Cc1cc(C)cc(-c2cc3occ(C)c3c(=O)o2)c1` [Compound 24, 6-(3,5-Dimethylphenyl)-3-methyl-4H-furo[3,2-c]pyran-4-one], the melting point is 171 to 173 °C.

In turn, `Cc1coc2cc(-c3cc(O)cc(O)c3)oc(=O)c12` [Compound 26, 6-(3,5-Dihydroxyphenyl)-3-methyl-4H-furo[3,2-c]pyran-4-one] yielded a melting point above 300 °C.

The compound `CCOc1cccc(-c2cc3occ(C)c3c(=O)o2)c1` [Compound 12, 6-(3-Ethoxyphenyl)-3-methyl-4H-furo[3,2-c]pyran-4-one] yielded a melting point of 128 to 130 °C. Still for that read-out and setting: under `Cc1coc2cc(-c3ccccc3)oc(=O)c12` [Compound 9, 3-Methyl-6-phenyl-4H-furo[3,2-c]pyran-4-one] stands 105 to 107 °C; under `Cc1coc2cc(-c3ccc(O)c(O)c3)oc(=O)c12` [Compound 23, 6-(3,4-Dihydroxyphenyl)-3-methyl-4H-furo[3,2-c]pyran-4-one], 259 to 261 °C. `Cc1coc2cc(-c3ccc(F)cc3)oc(=O)c12` [Compound 15, 6-(4-Fluorophenyl)-3-methyl-4H-furo[3,2-c]pyran-4-one] yielded a melting point of 175 to 177 °C. Same read-out and setting: the same measure for `COc1cccc(-c2cc3occ(C)c3c(=O)o2)c1` [Compound 11, 6-(3-Methoxyphenyl)-3-methyl-4H-furo[3,2-c]pyran-4-one]: 119 to 121 °C; for `COc1cc(OC)cc(-c2cc3oc(C)c(C)c3c(=O)o2)c1` [Compound 29, 6-(3,5-Dimethoxyphenyl)-2,3-dimethyl-4H-furo[3,2-c]pyran-4-one]: 163 to 165 °C; for `COc1ccc(-c2cc3occ(C)c3c(=O)o2)cc1` [Compound 17, 6-(4-Methoxyphenyl)-3-methyl-4H-furo[3,2-c]pyran-4-one]: 146 to 148 °C.

As for `CCc1coc2cc(-c3cc(OC)cc(OC)c3)oc(=O)c12` [Compound 28, 6-(3,5-Dimethoxyphenyl)-3-ethyl-4H-furo[3,2-c]pyran-4-one], the melting point is 131 to 133 °C.

In the case of `Cc1coc2cc(-c3cccc(O)c3)oc(=O)c12` [Compound 13, 6-(3-Hydroxyphenyl)-3-methyl-4H-furo[3,2-c]pyran-4-one], the melting point lay in the range of 225 to 227 °C. Same read-out and setting: under `COc1ccc(-c2cc3occ(C)c3c(=O)o2)cc1OC` [Compound 22, 6-(3,4-Dimethoxyphenyl)-3-methyl-4H-furo[3,2-c]pyran-4-one] stands 154 to 156 °C. `COc1cc(OC)cc(-c2cc3occ(C)c3c(=S)o2)c1` [Compound 30, 6-(3,5-Dimethoxyphenyl)-3-methyl-4H-furo[3,2-c]pyran-4-thione] had a melting point of 147 to 149 °C. Turning to `COc1cc(OC)cc(-c2cc3occ(C)c3c(=O)o2)c1` [Compound 25, 6-(3,5-Dimethoxyphenyl)-3-methyl-4H-furo[3,2-c]pyran-4-one], the melting point was 153 to 155 °C. Also, the “potency against SK-BR-3 relative to 1” value in data set [1] was “approximately threefold”. The compound `Cc1coc2cc(-c3cccc(O)c3O)oc(=O)c12` [Compound 20, 6-(2,3-Dihydroxyphenyl)-3-methyl-4H-furo[3,2-c]pyran-4-one] had a melting point of 239 to 241 °C. Same read-out and setting: the same measure for `COc1cc(-c2cc3occ(C)c3c(=O)o2)cc(OC)c1OC` [Compound 27, 3-Methyl-6-(3,4,5-trimethoxyphenyl)-4H-furo[3,2-c]pyran-4-one]: 201 to 203 °C. The same measure, in the same setting: the same measure for `Cc1cccc(-c2cc3occ(C)c3c(=O)o2)c1` [Compound 10, 3-Methyl-6-m-tolyl-4H-furo[3,2-c]pyran-4-one]: 135 to 137 °C; for `Cc1coc2cc(-c3cccc(F)c3)oc(=O)c12` [Compound 14, 6-(3-Fluorophenyl)-3-methyl-4H-furo[3,2-c]pyran-4-one]: 158 to 160 °C.
